For data set [1] the following is noted: second order; literature values; cited from earlier work.
For data set [2] the following is noted: literature values; not strictly comparable with third-order constants; cited from earlier work.
The conditions of data set [3]: literature values, cited from earlier work.
For data set [4] the following is noted: second order; literature values; cited from earlier work. This is another data set of the same source.
Another data set concerns COS-7 cells. As to conditions: COS-7, 1 mM paraquat 3 h, 100 μM drug, counted 48 h later. How it is done:
(§1) FIGS. 3A-3H. […] FIGS. 3A-3B. […] FIG. 3A. […] FIG. 3B. […] FIGS. 3C-3D. […] FIG. 3D. […] FIGS. 3E-3F. […] FIG. 3E. Representative blots are shown. […] FIG. 3F. […] FIG. 3G. […] FIG. 3H.
Finally, whether cobinamide could alleviate the effects of oxidative stress induced by yet another mechanism in a different cell type was tested using paraquat-treated COS-7 cells. Paraquat generates O2·^− through a redox cycling mechanism and increases both intracellular O2·^− and H2O2^42.

The next data set has as its system D. melanogaster. As to the kind of experiment: Survival of fruit flies during paraquat poisoning. Type of data set: in vivo. As to conditions: 20 mM paraquat with 0.8 mM drug in food, over 7 d.
For data set [5], the system named is Jun N-terminal kinase (JNK) phosphorylation in H9c2 cells. In words: H2O2-induced JNK phosphorylation, immunoblotting. Type of data set: cell-based, rat. As to conditions: H9c2, 100 μM H2O2 30 min, drugs at 100 μM.
Description: as §1
(In general: In western blotting, separated proteins are transferred to a membrane and probed.)

In data set [6] the test system is H9c2 rat embryonal cardiomyocytes. In words: Mitochondrial superoxide content, MitoSOX Red fluorescence. Type of data set: cell-based. As to conditions: H9c2, 5 μM rotenone 30 min, drugs at 2.5 μM. How it is done:
as §1
H9c2 cells were plated on glass cover slips in 24 well dishes, and 16 h later the medium was changed to phenol red-free DMEM supplemented with 20 mM Hepes, 0.1% fetal bovine serum, and 0.5% bovine serum albumin. […] MitoSOX Red is a dihydroethidium derivative containing triphenyl-phosphonium, which localizes it to respiring mitochondria. Its reaction with O2·^− yields 2-hydroxy-mitoethidium (2-OH-Mito-E″), whereas its reaction with other oxidative species yields mitoethidium (Mito-E^+)^67. These two oxidative derivatives have overlapping fluorescence spectra, but they can be distinguished by high performance liquid chromatography (HPLC)^68. Rotenone increased 2-OH-Mito-E^+ about two-fold, without increasing Mito-E^+. Thus, any increased fluorescence observed on treating cells with rotenone could be ascribed to an increase in 2-OH-Mito-E^+, and decreased fluorescence by an anti-oxidant in rotenone-treated cells was likely from a decrease in 2-OH-Mito-E^+.
(§2) The cells were then washed once with PBS, placed back in the DMEM experimental medium, and incubated with the indicated drugs for 30 min. At the end of the incubation period, nuclei of both the MitoSOX Red- and JC-1-treated cells were stained with […] 4′,6-diamidino-2-phenyl-indole (DAPI) for 3 min, washed once with PBS, and returned to the DMEM experimental medium. The cover slips were removed from the wells, mounted in the DMEM experimental medium, and red (MitoSOX Red and JC-1 aggregates), green (JC-1 monomers), and blue (DAPI) fluorescence intensity was assessed using a Keyence BZ-X700 fluorescence microscope at the following paired excitation/emission wavelengths, respectively: 560/630, 490/525, and 360/460 nm.
To assess if cobinamide reduces oxidative stress in cells and to compare its […] efficacy to that of cobalamin, imisopasem, and MnTBAP, several sets of experiments were performed. First, whether cobinamide reduces mitochondrial-generated O2·^− was evaluated using the fluorescent probe MitoSOX Red. H9c2 rat embryonal cardiomyocytes were treated with rotenone, an inhibitor of complex I, to increase mitochondrial O2·^−. […] Monitoring the UV-visible spectrum of cobinamide is a sensitive means to assess ligand binding^38.

A further data set has as its system H9c2 cells. As to the kind of experiment: Mitochondrial membrane potential, JC-1 red to green fluorescence. The following applies: H9c2, 5 μM rotenone 30 min, drugs at 2.5 μM. Type of data set: cell-based, rat. As for the experimental part: as §1, §2
Increased mitochondrial O2·^− by rotenone would be expected to reduce the mitochondrial membrane potential (ΔΨm), due in part to activation of uncoupling proteins^39. […] Rotenone caused an almost complete loss of red fluorescence and a striking increase in green fluorescence in the cells, indicating a marked decrease in ΔΨm (FIGS. 3C-3D).

The conditions of data set [7]: mouse, in vivo.
Description: It seemed possible, therefore, that the cobinamide administered to the mice could have increased their blood pressure, since ·NO is a potent vasodilator. Because diabetes can increase blood pressure, these studies were performed on a parallel set of non-diabetic mice of the same strain and sex and using the same concentration of histidyl-cobinamide in the drinking water as in the above-described studies.

Description for D. melanogaster: The number of live flies was counted each day for 7 d. The experiment was repeated seven times, for a total of 70 flies per condition. The percent surviving flies was calculated; error bars represent standard deviations and are shown in one direction only for sake of clarity. […] Chi, cobinamide in Panel A and histidyl-cobinamide in Panels B-K; Imp, imisopasem; MnTP, MnTBAP; CbL, cobalamin; DNPH, 2,4-dinitrophenylhydrazine; ND, non-diabetic; D, diabetic; Veh, vehicle.
To test cobinamide in a whole animal, D. melanogaster was selected for initial studies, and oxidative stressed was increased in the files by administering paraquat in their food. Cobinamide was again compared to imisopasem, MnTBAP, and hydroxocobalamin, all administered in food.

Turning to `C/C1=C2/[N-][C@H]([C@H](CC(N)=O)[C@@]2(C)CCC(=O)NC[C@H](C)OP(=O)([O-])O[C@H]2[C@@H](O)[C@@H](n3cnc4cc(C)c(C)cc43)O[C@@H]2CO)[C@]2(C)N=C(/C(C)=C3N=C(/C=C4N=C1[C@@H](CCC(N)=O)C\4(C)C)[C@@H](CCC(N)=O)[C@]\3(C)CC(N)=O)[C@@H](CCC(N)=O)[C@]2(C)CC(N)=O.[Co+2]` (stereo in doubt) [Cobalamin(II)], the “Oxidation in the presence of oxygen” value is listed as “rapidly oxidized back to cobalamin(III)”. Further, the “Rate constant, reaction with peroxynitrite (ONOO^−), published” value in data set [1] is 3.7 × 10^5 (14) M^−1 s^−1. For the same molecule, the “Rate constant, reaction with hydrogen peroxide (H2O2), published” value in data set [2] is listed as 1.4 × 10^2. Moreover, the “Ka, binding of nitric oxide (·NO), published” value in data set [3] was “Ka: 1.5 × 10^8 (51) M^−1”. Also, the “Rate constant, reaction with superoxide (O2·^−), published” value in [4] was 3.8e+08 M⁻¹ s⁻¹.

As for `O=C(O)c1ccc(-c2c3nc(c(-c4ccc(C(=O)O)cc4)c4ccc([n-]4)c(-c4ccc(C(=O)O)cc4)c4nc(c(-c5ccc(C(=O)O)cc5)c5ccc2[n-]5)C=C4)C=C3)cc1.[Mn+3]` [MnTBAP, manganese(III)tetrakis(4-benzoicacid)porphyrin], the “Rate constant, reaction with peroxynitrite (ONOO^−), published” value in data set [1] is reported as ~1 × 10^5 (27) M^−1 s^−1. Moreover, in [2], the “Rate constant, reaction with hydrogen peroxide (H2O2), published” value is 5.8. In the data set with COS-7 cells, the “Effect on cell growth of paraquat-treated cells” value is on record as “neither imisopasem nor MnTBAP had an effect”. Also, in data set [3] (second order), the “Rate constant, reaction with nitric oxide (·NO), published” value is given as “No activity (28)”. In addition, the “Effect on mortality of paraquat-exposed flies” value with D. melanogaster was “lesser effect”. In addition, the “Rate constant, reaction with superoxide (O2·^−), published” value in data set [4] is ~4.0 M⁻¹ s⁻¹. Moreover, in data set [5], the “JNK phosphorylation in H2O2-treated cells” value is recorded as “small non-significant effects”. Further, the “MitoSOX red fluorescence in rotenone-treated cells” value in data set [6] was “reduced the fluorescent signal substantially”. For the same molecule, the “JC-1 red to green fluorescence ratio (ΔΨm) in rotenone-treated cells” value with H9c2 cells is listed as “modest degrees of recovery”.

histidyl-cobinamide: the Blood pressure entry in data set [7] is reported as “No difference in the blood pressure”.

The values above are taken from patent publication US20260069606A1, “Oxidative Stress and Diabetes Treatment with Cobinamide” (The Regents of the University of California, priority 2022, published 2026).
